The target of one experiment is JH2 domain of human Tyk2 (Homo sapiens (Human), UniProt P29597). Briefly: JH2 Biochemical Assay (TR-FRET probe displacement). The format is binding. The conditions noted are these: TR-FRET probe displacement, JH2 domain of human Tyk2. A general note: In TR-FRET formats the signal depends on donor and acceptor labels being close together.
Another experiment deals with Tyk2 (Homo sapiens (Human), UniProt P29597). Briefly: pSTAT4 Cell Assay (MSD, NK92 cells). The format is cell-based. The conditions noted are these: MSD.
Tyk2, sequence (P29597 whole entry): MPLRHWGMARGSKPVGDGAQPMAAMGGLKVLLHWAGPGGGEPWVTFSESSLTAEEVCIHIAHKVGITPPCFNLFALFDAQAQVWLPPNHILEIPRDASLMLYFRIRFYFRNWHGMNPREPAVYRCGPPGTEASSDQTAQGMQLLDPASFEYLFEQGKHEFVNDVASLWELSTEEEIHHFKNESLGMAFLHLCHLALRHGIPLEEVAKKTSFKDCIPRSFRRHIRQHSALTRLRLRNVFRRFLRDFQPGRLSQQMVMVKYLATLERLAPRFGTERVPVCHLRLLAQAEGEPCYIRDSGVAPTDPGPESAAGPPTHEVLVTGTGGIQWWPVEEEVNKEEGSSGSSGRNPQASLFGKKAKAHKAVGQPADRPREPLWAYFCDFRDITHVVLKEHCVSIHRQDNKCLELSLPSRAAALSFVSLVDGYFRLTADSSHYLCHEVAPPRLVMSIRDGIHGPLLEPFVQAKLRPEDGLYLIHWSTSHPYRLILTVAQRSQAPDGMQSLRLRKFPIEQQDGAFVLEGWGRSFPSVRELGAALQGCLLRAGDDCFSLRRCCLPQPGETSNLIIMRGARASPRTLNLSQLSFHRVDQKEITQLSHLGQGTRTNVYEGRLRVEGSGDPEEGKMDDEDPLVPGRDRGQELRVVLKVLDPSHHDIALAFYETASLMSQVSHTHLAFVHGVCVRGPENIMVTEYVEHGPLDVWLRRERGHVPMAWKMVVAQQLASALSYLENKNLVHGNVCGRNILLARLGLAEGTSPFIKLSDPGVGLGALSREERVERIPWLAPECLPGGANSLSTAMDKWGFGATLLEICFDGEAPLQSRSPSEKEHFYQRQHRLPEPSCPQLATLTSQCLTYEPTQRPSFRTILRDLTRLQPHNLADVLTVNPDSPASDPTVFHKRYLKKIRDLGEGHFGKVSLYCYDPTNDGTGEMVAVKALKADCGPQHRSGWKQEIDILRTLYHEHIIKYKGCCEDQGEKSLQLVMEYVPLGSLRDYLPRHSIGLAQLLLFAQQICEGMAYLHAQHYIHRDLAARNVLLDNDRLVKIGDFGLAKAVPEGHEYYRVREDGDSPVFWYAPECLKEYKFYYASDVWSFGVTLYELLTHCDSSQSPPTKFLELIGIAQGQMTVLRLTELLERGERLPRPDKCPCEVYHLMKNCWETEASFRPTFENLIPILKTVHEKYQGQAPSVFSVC

Structures can show the parent of a compound that is named as a salt.

JH2 domain of human Tyk2, sequence (P29597 575-876): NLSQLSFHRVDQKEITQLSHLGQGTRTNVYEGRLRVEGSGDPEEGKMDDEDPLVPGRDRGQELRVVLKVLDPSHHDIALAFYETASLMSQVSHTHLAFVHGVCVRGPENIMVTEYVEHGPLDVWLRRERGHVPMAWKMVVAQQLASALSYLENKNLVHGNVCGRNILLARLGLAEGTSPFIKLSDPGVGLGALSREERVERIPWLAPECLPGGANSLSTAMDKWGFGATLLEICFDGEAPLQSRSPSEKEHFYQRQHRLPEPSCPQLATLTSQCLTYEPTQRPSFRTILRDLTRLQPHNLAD

Broadly, the IC50 is the concentration needed to halve the response being measured. Read a high IC50 as lower potency. Regarding `COc1cc(-c2cnc(NC(C)=O)cc2Nc2ccnc(C(C)(F)F)c2)ncn1` [Example 217, N-(4-((2-(1,1-difluoroethyl)pyridin-4-yl)amino)-5-(6-methoxypyrimidin-4-yl)pyridin-2-yl)acetamide], the IC50 at JH2 domain of human Tyk2 is 10 to 100 nM; on Tyk2, not below 1000 nM.

Consider `CC(=O)Nc1cc(Nc2cc(C)nc(C(C)(F)F)n2)c(-c2ccc(C)nn2)cn1` [Example 219, N-(4-((2-(1,1-difluoroethyl)-6-methylpyrimidin-4-yl)amino)-5-(6-methylpyridazin-3-yl)pyridin-2-yl)acetamide], for which the IC50 on JH2 domain of human Tyk2 and at Tyk2 was not above 10 nM throughout.

On to `CCc1cc(Nc2cc(NC(C)=O)ncc2-c2ccc(=O)[nH]n2)nc(C(C)(F)F)n1` [Example 221, N-(4-((2-(1,1-difluoroethyl)-6-ethylpyrimidin-4-yl)amino)-5-(6-oxo-1,6-dihydropyridazin-3-yl)pyridin-2-yl)acetamide], for which the IC50 was 10 to 100 nM on JH2 domain of human Tyk2 and not below 1000 nM against Tyk2.

Consider `CC(=O)Nc1cc(Nc2cc(C)nc(C(C)(F)F)n2)c(-c2cc3n(n2)CCN(C(C)=O)C3)cn1` [Example 222, N-(5-(5-acetyl-4,5,6,7-tetrahydropyrazolo[1,5-a]pyrazin-2-yl)-4-((2-(1,1-difluoroethyl)-6-methylpyrimidin-4-yl)amino)pyridin-2-yl)acetamide trifluoroacetate], for which the IC50 at JH2 domain of human Tyk2 and at Tyk2 was not above 10 nM each time.

Regarding `CC(=O)Nc1cc(Nc2cc(C)nc(C(C)(F)F)n2)c(-c2cnc(N(C)C)cn2)cn1` [Example 225, N-(4-((2-(1,1-difluoroethyl)-6-methylpyrimidin-4-yl)amino)-5-(5-(dimethylamino)pyrazin-2-yl)pyridin-2-yl)acetamide], the IC50 at JH2 domain of human Tyk2 is not above 10 nM; against Tyk2 it was 10 to 100 nM.

Take `CC(=O)Nc1cc(Nc2cc(C)nc(C(C)(F)F)n2)c(-c2ccn(CC(C)(C)O)n2)cn1` [Example 228, N-(4-((2-(1,1-difluoroethyl)-6-methylpyrimidin-4-yl)amino)-5-(1-(2-hydroxy-2-methylpropyl)-1H-pyrazol-3-yl)pyridin-2-yl)acetamide]: the IC50 at JH2 domain of human Tyk2 and at Tyk2 was not above 10 nM in each case.

Consider `CCOCCn1ccc(-c2cnc(NC(C)=O)cc2Nc2cc(C)nc(C(C)(F)F)n2)n1` [Example 229, N-(4-((2-(1,1-difluoroethyl)-6-methylpyrimidin-4-yl)amino)-5-(1-(2-ethoxyethyl)-1H-pyrazol-3-yl)pyridin-2-yl)acetamide], for which the IC50 on JH2 domain of human Tyk2 and against Tyk2 was not above 10 nM each time.

Turning to `COC(C)(C)Cn1ccc(-c2cnc(NC(C)=O)cc2Nc2cc(C)nc(C(C)(F)F)n2)n1` [Example 230, N-(4-((2-(1,1-difluoroethyl)-6-methylpyrimidin-4-yl)amino)-5-(1-(2-methoxy-2-methylpropyl)-1H-pyrazol-3-yl)pyridin-2-yl)acetamide], the IC50 on JH2 domain of human Tyk2 and at Tyk2 was not above 10 nM each time.

As for `COCc1cnc(-c2cnc(NC(C)=O)cc2Nc2cc(C)nc(C(C)(F)F)n2)s1` [Example 231, N-(4-((2-(1,1-difluoroethyl)-6-methylpyrimidin-4-yl)amino)-5-(5-(methoxymethyl)thiazol-2-yl)pyridin-2-yl)acetamide], the 50% inhibitory concentration (IC50) on JH2 domain of human Tyk2 and against Tyk2 was not above 10 nM each time.

For `COCc1ncc(-c2cnc(NC(C)=O)cc2Nc2cc(C)nc(C(C)(F)F)n2)s1` [Example 232, N-(4-((2-(1,1-difluoroethyl)-6-methylpyrimidin-4-yl)amino)-5-(2-(methoxymethyl)thiazol-5-yl)pyridin-2-yl)acetamide], the IC50 on JH2 domain of human Tyk2 and at Tyk2 was not above 10 nM throughout.

For the compound `COCc1csc(-c2cnc(NC(C)=O)cc2Nc2cc(C)nc(C(C)(F)F)n2)n1` [Example 233, N-(4-((2-(1,1-difluoroethyl)-6-methylpyrimidin-4-yl)amino)-5-(4-(methoxymethyl)thiazol-2-yl)pyridin-2-yl)acetamide], the IC50 at JH2 domain of human Tyk2 and against Tyk2 was not above 10 nM throughout.

Take `CC(=O)Nc1cc(Nc2cc(C)nc(C(C)(F)F)n2)c(-c2csc(N3CCOCC3)n2)cn1` [Example 234, N-(4-((2-(1,1-difluoroethyl)-6-methylpyrimidin-4-yl)amino)-5-(2-morpholinothiazol-4-yl)pyridin-2-yl)acetamide]: the IC50 on JH2 domain of human Tyk2 and against Tyk2 was not above 10 nM each time.

With `CC(=O)Nc1cc(Nc2cc(C)nc(C(C)(F)F)n2)c(-c2ncns2)cn1` [Example 235, N-(4-((2-(1,1-difluoroethyl)-6-methylpyrimidin-4-yl)amino)-5-(1,2,4-thiadiazol-5-yl)pyridin-2-yl)acetamide], the IC50 at JH2 domain of human Tyk2 and at Tyk2 was not above 10 nM each time.

Take `CC(=O)Nc1cc(Nc2cc(C)nc(C(C)(F)F)n2)c(-c2nnc(N(C)C)s2)cn1` [Example 236, N-(4-((2-(1,1-difluoroethyl)-6-methylpyrimidin-4-yl)amino)-5-(5-(dimethylamino)-1,3,4-thiadiazol-2-yl)pyridin-2-yl)acetamide]: the IC50 at JH2 domain of human Tyk2 and against Tyk2 was not above 10 nM in each case.

For `CC(=O)Nc1cc(Nc2cc(C)nc(C(C)(F)F)n2)c(-c2cn3c(n2)CN(C)CC3)cn1` [Example 239, N-(4-((2-(1,1-difluoroethyl)-6-methylpyrimidin-4-yl)amino)-5-(7-methyl-5,6,7,8-tetrahydroimidazo[1,2-a]pyrazin-2-yl)pyridin-2-yl)acetamide], the IC50 at JH2 domain of human Tyk2 and against Tyk2 was not above 10 nM in each case.

`CC(=O)Nc1cc(Nc2cc(C)nc(C(C)(F)F)n2)c(-c2cc3n(n2)CCCN3C)cn1` [Example 240, N-(4-((2-(1,1-difluoroethyl)-6-methylpyrimidin-4-yl)amino)-5-(4-methyl-4,5,6,7-tetrahydropyrazolo[1,5-a]pyrimidin-2-yl)pyridin-2-yl)acetamide]: the IC50 at JH2 domain of human Tyk2 and against Tyk2 was not above 10 nM each time.

On to `CC(=O)Nc1cc(Nc2cc(C)nc(C(C)(F)F)n2)c(-c2cc(OC(C)C)ncn2)cn1` [Example 242, N-(4-((2-(1,1-difluoroethyl)-6-methylpyrimidin-4-yl)amino)-5-(6-isopropoxypyrimidin-4-yl)pyridin-2-yl)acetamide], for which the IC50 was not above 10 nM on JH2 domain of human Tyk2 and 10 to 100 nM against Tyk2.

With `CCOc1cc(-c2cnc(NC(C)=O)cc2Nc2cc(C)nc(C(C)(F)F)n2)ncn1` [Example 243, N-(4-((2-(1,1-difluoroethyl)-6-methylpyrimidin-4-yl)amino)-5-(6-ethoxypyrimidin-4-yl)pyridin-2-yl)acetamide], the IC50 on JH2 domain of human Tyk2 is not above 10 nM; at Tyk2, 10 to 100 nM.

Turning to `CCc1cc(-c2cnc(NC(C)=O)cc2Nc2cc(C)nc(C(C)(F)F)n2)ncn1` [Example 244, N-(4-((2-(1,1-difluoroethyl)-6-methylpyrimidin-4-yl)amino)-5-(6-ethylpyrimidin-4-yl)pyridin-2-yl)acetamide], the IC50 on JH2 domain of human Tyk2 was not above 10 nM; at Tyk2, 10 to 100 nM.

Turning to `CC(=O)Nc1cc(Nc2cc(C)nc(C(C)(F)F)n2)c(-c2cc(C(C)C)ncn2)cn1` [Example 245, N-(4-((2-(1,1-difluoroethyl)-6-methylpyrimidin-4-yl)amino)-5-(6-isopropylpyrimidin-4-yl)pyridin-2-yl)acetamide], the results for the 50% inhibitory concentration (IC50) at JH2 domain of human Tyk2 and on Tyk2 were not above 10 nM and 10 to 100 nM, respectively.

On to `CC(=O)Nc1cc(Nc2cc(C)nc(C(C)(F)F)n2)c(-c2cc(N(C)C)ncn2)cn1` [Example 247, N-(4-((2-(1,1-difluoroethyl)-6-methylpyrimidin-4-yl)amino)-5-(6-(dimethylamino)pyrimidin-4-yl)pyridin-2-yl)acetamide], for which the IC50 is not above 10 nM at JH2 domain of human Tyk2 and not below 1000 nM against Tyk2.

Regarding `COCCn1cnc(-c2cnc(NC(C)=O)cc2Nc2cc(C)nc(C(C)(F)F)n2)cc1=O` [Example 250, N-(4-((2-(1,1-difluoroethyl)-6-methylpyrimidin-4-yl)amino)-5-(1-(2-methoxyethyl)-6-oxo-1,6-dihydropyrimidin-4-yl)pyridin-2-yl)acetamide], the IC50 at JH2 domain of human Tyk2 is not above 10 nM; against Tyk2 it was 100 to 1000 nM.

For the compound `CC(=O)Nc1cc(Nc2cc(C)nc(C(C)(F)F)n2)c(-c2cccnn2)cn1` [Example 251, N-(4-((2-(1,1-difluoroethyl)-6-methylpyrimidin-4-yl)amino)-5-(pyridazin-3-yl)pyridin-2-yl)acetamide], the IC50 on JH2 domain of human Tyk2 and against Tyk2 was not above 10 nM each time.

Turning to `CC(=O)Nc1cc(Nc2cc(C)nc(C(C)(F)F)n2)c(-c2cc(C)cnn2)cn1` [Example 252, N-(4-((2-(1,1-difluoroethyl)-6-methylpyrimidin-4-yl)amino)-5-(5-methylpyridazin-3-yl)pyridin-2-yl)acetamide], the IC50 on JH2 domain of human Tyk2 and against Tyk2 was not above 10 nM in each case.

For the compound `CC(=O)Nc1cc(Nc2cc(C)nc(C(C)(F)F)n2)c(-c2cc(NC(C)C)cnn2)cn1` [Example 254, N-(4-((2-(1,1-difluoroethyl)-6-methylpyrimidin-4-yl)amino)-5-(5-(isopropylamino)pyridazin-3-yl)pyridin-2-yl)acetamide], the IC50 on JH2 domain of human Tyk2 and at Tyk2 was not above 10 nM each time.

Consider `CC(=O)Nc1cc(Nc2ccnc(C(C)(F)F)n2)c(-c2nnc(N3CCOCC3)s2)cn1` [Example 255, N-(4-((2-(1,1-difluoroethyl)pyrimidin-4-yl)amino)-5-(5-morpholino-1,3,4-thiadiazol-2-yl)pyridin-2-yl)acetamide], for which the IC50 on JH2 domain of human Tyk2 and on Tyk2 was not above 10 nM in each case.

Consider `CC(=O)Nc1cc(Nc2ccnc(C(C)(F)F)n2)c(-c2cc(N(C)C)ncn2)cn1` [Example 256, N-(4-((2-(1,1-difluoroethyl)pyrimidin-4-yl)amino)-5-(6-(dimethylamino)pyrimidin-4-yl)pyridin-2-yl)acetamide], for which the IC50 is 10 to 100 nM at JH2 domain of human Tyk2 and not below 1000 nM at Tyk2.

Turning to `COCCn1ccc(-c2cnc(NC(C)=O)cc2Nc2cc(C)nc(C(C)(F)F)n2)n1` [Example 257, N-(4-((2-(1,1-difluoroethyl)-6-methylpyrimidin-4-yl)amino)-5-(1-(2-methoxyethyl)-1H-pyrazol-3-yl)pyridin-2-yl)acetamide], the IC50 at JH2 domain of human Tyk2 and on Tyk2 was not above 10 nM throughout.

The record behind these values is patent publication US20260028365A1 (BIOGEN MA INC., priority 2022, published 2026).
